Measured values taken from US20230398130A1, “METHODS AND COMPOSITIONS FOR DIFFERENTIATING STEM CELLS” (Massachusetts Institute of Technology, priority 2020, published 2023).

Legend:
[1] = test system: ISC-enriched organoids; assay: Primary screen, 384-well 2.5-D organoid differentiation (ENR+CD, 6 days): basal lysozyme secretion (LYZ.NS); type: cell-based, murine; settings: primary screen; for Dose.FC.LYZ.NS: FC vs plate median; for Z.LYZ.NS: standard z score; for SSMD.LYZ.NS: strictly standardized mean difference
Text: (§1) High-throughput screening.

[2] = test system: ISC-enriched organoids; assay: Primary screen, 384-well 2.5-D organoid differentiation (ENR+CD, 6 days): carbachol-induced lysozyme secretion (LYZ.S); type: cell-based, murine; settings: primary screen; for Dose.FC.LYZ.S: FC vs plate median; for Z.LYZ.S: standard z score; for SSMD.LYZ.S: strictly standardized mean difference
Text: as §1

[3] = test system: ISC-enriched organoids; assay: Primary screen, 384-well 2.5-D organoid differentiation (ENR+CD, 6 days, Target Selective Inhibitor Library, vs whole-plate median): ATP (CellTiter-Glo 3D, CTG); settings: primary screen; for Dose.FC.CTG: FC vs plate median; for Z.CTG: standard z score; for SSMD.CTG: strictly standardized mean difference
[4] = 1st of the 4 dose lines of the treatment (dose not given)
[5] = 2nd of the 4 dose lines of the treatment (dose not given)
[6] = 3rd of the 4 dose lines of the treatment (dose not given)
[7] = 4th of the 4 dose lines of the treatment (dose not given)

Row | SMILES | SSMD.LYZ.NS [1, 4] | SSMD.LYZ.NS [1, 5] | SSMD.LYZ.NS [1, 6] | SSMD.LYZ.NS [1, 7] | Z.LYZ.S [2, 4] | Z.LYZ.S [2, 5] | Z.LYZ.S [2, 6] | Z.LYZ.S [2, 7] | SSMD.LYZ.S [2, 4] | SSMD.LYZ.S [2, 5] | SSMD.LYZ.S [2, 6] | SSMD.LYZ.S [2, 7] | Z.CTG ([3]; Dose 0.08 uM) | Z.CTG ([3]; Dose 0.40 uM) | Z.CTG ([3]; Dose 2.00 uM) | Z.CTG ([3]; Dose 10.00 uM) | SSMD.CTG [3, 4] | SSMD.CTG [3, 5] | SSMD.CTG [3, 6] | SSMD.CTG [3, 7] | other results
1 | Nc1cccc2c1CN(C1CCC(=O)NC1=O)C2=O (stereo not drawn) [Lenalidomide (CC-5013)] | 1.215 | 0.674 | 0.472 | −0.318 | 0.639 | 1.137 | 0.162 | −0.290 | 0.593 | 0.873 | 0.193 | −0.298 | 0.110 | −0.037 | −0.596 | −0.754 | 0.169 | −0.049 | −0.710 | −0.802 | Dose.FC.LYZ.NS ([1]; Dose 0.08 uM): 0.147 log 2 fold change; Z.LYZ.NS ([1]; Dose 0.08 uM): 1.283; Dose.FC.LYZ.NS ([1]; Dose 0.40 uM): 0.099 log 2 fold change; Z.LYZ.NS ([1]; Dose 0.40 uM): 0.863; Dose.FC.LYZ.NS ([1]; Dose 2.00 uM): 0.071 log 2 fold change; Z.LYZ.NS ([1]; Dose 2.00 uM): 0.615; Dose.FC.LYZ.NS ([1]; Dose 10.00 uM): −0.041 log 2 fold change; Z.LYZ.NS ([1]; Dose 10.00 uM): −0.360; Dose.FC.LYZ.S ([2]; Dose 0.08 uM): 0.099 log 2 fold change; Dose.FC.LYZ.S ([2]; Dose 0.40 uM): 0.176 log 2 fold change; Dose.FC.LYZ.S ([2]; Dose 2.00 uM): 0.025 log 2 fold change; Dose.FC.LYZ.S ([2]; Dose 10.00 uM): −0.045 log 2 fold change; Dose.FC.CTG ([3]; Dose 0.08 uM): 0.046 log 2 fold change; Dose.FC.CTG ([3]; Dose 0.40 uM): −0.016 log 2 fold change; Dose.FC.CTG ([3]; Dose 2.00 uM): −0.250 log 2 fold change; Dose.FC.CTG ([3]; Dose 10.00 uM): −0.316 log 2 fold change
2 | N#Cc1ccc(C(c2ccc(C#N)cc2)n2cncn2)cc1 [Letrozole] | 0.554 | 1.104 | 0.063 | −0.042 | 0.258 | 0.970 | 0.038 | 0.040 | 0.212 | 0.764 | 0.041 | 0.028 | −0.031 | 0.241 | 0.236 | 0.408 | −0.043 | 0.336 | 0.288 | 0.606 | –
3 | CCN1CCC[C@H]1CNC(=O)c1cc(S(N)(=O)=O)ccc1OC [Levosulpiride] | 0.092 | 0.226 | 0.501 | −0.195 | −0.108 | 0.830 | 0.800 | −0.168 | −0.076 | 0.774 | 0.531 | −0.154 | −0.102 | −0.015 | 0.074 | 0.215 | −0.129 | −0.019 | 0.087 | 0.297 | –
4 | CCN(CC)CC(=O)Nc1c(C)cccc1C [Lidocaine] | 0.904 | 0.132 | 0.008 | 0.183 | 0.537 | 0.167 | −0.244 | −0.061 | 0.448 | 0.197 | −0.268 | −0.070 | −0.188 | −0.365 | 0.081 | −0.611 | −0.237 | −0.371 | 0.116 | −0.889 | –
5 | CC#CCn1c(N2CCC[C@@H](N)C2)nc2c1c(=O)n(Cc1nc(C)c3ccccc3n1)c(=O)n2C [Linagliptin] | 1.046 | 0.306 | 0.118 | 0.671 | 0.905 | 0.305 | −0.204 | 0.322 | 0.797 | 0.215 | −0.126 | 0.374 | 0.389 | 0.499 | 0.054 | −0.027 | 0.299 | 0.612 | 0.047 | −0.025 | –
6 | Nc1nc(OCc2cc(Br)cs2)c2[nH]cnc2n1 [Lomeguatrib] | −0.474 | −0.137 | −0.189 | −1.038 | −0.528 | −0.139 | −0.356 | −0.893 | −0.435 | −0.121 | −0.346 | −0.820 | −1.017 | −0.739 | 0.178 | −0.192 | −0.489 | −0.422 | 0.193 | −0.190 | –
7 | CCOC(=O)N1CCC(=C2c3ccc(Cl)cc3CCc3cccnc32)CC1 [Loratadine] | 0.098 | −0.004 | −0.783 | −0.977 | −0.490 | 0.069 | −0.959 | −0.956 | −0.535 | 0.082 | −0.811 | −1.029 | −0.697 | 0.347 | −0.488 | −0.287 | −0.683 | 0.535 | −0.609 | −0.360 | –
